# Reference: article PMC9327782, “Benzoxazole derivatives as new VEGFR-2 inhibitors and apoptosis inducers: design, synthesis, in silico studies, and antiproliferative evaluation” (Journal of Enzyme Inhibition and Medicinal Chemistry, 2022)
# Where two headings read alike, the source gives them in different places.
# Columns and labels:
# [1] = tested on: MCF-7 cell line; assay: In vitro anti-proliferative MTT assay, MCF-7; format: cell-based, human; details: Homo sapiens
# Source text: The cytotoxicity results were obtained as median growth inhibitory concentration (IC50).
# MTT assay protocol. This method was applied in accordance with the comprehensive description in Supplementary data. […]
# 5 Raw data of cytotoxity and VEGFR -2 assay […]
# Experimental of biological testing
# 1. In vitro anti-proliferative activity
# MTT assay protocol was applied to assess the anti-proliferative activity of the synthesized compounds. Two human cancer cell lines (MCF-7 and HepG-2) and one normal cell line (WI-38) were used in this test. At first, the cell lines were cultured in RPMI -1640 medium with 10% fetal bovine serum. Antibiotics (100 units/ml penicillin and100 µg/ml streptomycin ) were added at 37 °C in a 5% CO2 incubator. The cell lines were seeded in a 96-well plate at a density of 1.0 x 10^4 cells / well at 37 °C for 24 h under 5% CO2. After incubation, the cells were treated with different […]
# concentration of the synthesized compounds and incubated for 24 h. After 24 h of drug treatment, 20 µl of MTT solution at 5mg/ml was added and incubated for 4 h. Dimethyl sulfoxide (DMSO) in volume of 100 µl was added into each well to dissolve the purple formazan formed. The colorimetric assay was measured and recorded at absorbance of 570 nm using a plate reader (EXL 800, USA). The relative cell viability in percentage was calculated as (A570 of treated samples/A570 of untreated sample) X 100. […]
# [2] = target: T1, VEGFR-2 (Homo sapiens, UniProt P35968); assay: In vitro VEGFR-2 kinase assay (ELISA kit); format: biochemical
# T1 construct: purchased
# Procedure: The assay was applied by ELISA kits in accordance with the comprehensive description in[18]^,[33] as described in Supplementary data. […]
# 2. In vitro VEGFR-2 kinase assay
# All the synthesized compounds were tested for its inhibitory activity against VEGFR-2. Human VEGFR-2 ELISA kit (Enzyme-Linked Immunosorbent Assay) was utilized in this test. At first, specific antibody for VEGFR-2 was seeded on a 96-well plate and 100 μL of the standard solution or the tested compound was added, all were incubated at room temperature for 2.5 h. Then washed, 100 μL of the prepared biotin antibody was added, then incubated at room temperature for additional 1 h. and washed. Then, 100 μL of streptavidin solution was added and incubated for 45 min. at room temperature. Washed again, 100 μL of TMB Substrate reagent was added and incubated for 30 min. at room temperature. 50 μL of the stop solution was added, then read at 450 […]
# nm immediately. […]
# [3] = tested on: HepG2 cells; assay: Flow cytometry apoptosis analysis (Annexin V/PI); format: cell-based, human
# Procedure: In details, 32.45 and 2.86% for early and late apoptotic phases, respectively compared to control, (6.56%,5.34%,1.22%, respectively) (Figure 5 and Table 5).
# Apoptotic effect was applied in accordance with the comprehensive description in Supplementary data[36]^,[37]
# 4. Flow cytometry analysis for apoptosis
# Flow cytometry cell apoptosis analysis was used to investigate the apoptotic effect of the synthesized compounds. HepG2 cells were treated with compound 12l (10.50 µM) for 24 h, collected by trypsin, centrifuged, washed two successive times with PBS, suspended in 500 μl binding buffer, and double stained with 5 μl Annexin V-FITC and 5 μl PI in the dark at room temperature for 15 min. The stained cells were measured using Epics XL-MCL™ Flow Cytometer and analyzed using Flowing software. […]
# [4] = HepG2, 24 h, mean ± SEM of two experiments
# T1 sequence (P35968 20-1356): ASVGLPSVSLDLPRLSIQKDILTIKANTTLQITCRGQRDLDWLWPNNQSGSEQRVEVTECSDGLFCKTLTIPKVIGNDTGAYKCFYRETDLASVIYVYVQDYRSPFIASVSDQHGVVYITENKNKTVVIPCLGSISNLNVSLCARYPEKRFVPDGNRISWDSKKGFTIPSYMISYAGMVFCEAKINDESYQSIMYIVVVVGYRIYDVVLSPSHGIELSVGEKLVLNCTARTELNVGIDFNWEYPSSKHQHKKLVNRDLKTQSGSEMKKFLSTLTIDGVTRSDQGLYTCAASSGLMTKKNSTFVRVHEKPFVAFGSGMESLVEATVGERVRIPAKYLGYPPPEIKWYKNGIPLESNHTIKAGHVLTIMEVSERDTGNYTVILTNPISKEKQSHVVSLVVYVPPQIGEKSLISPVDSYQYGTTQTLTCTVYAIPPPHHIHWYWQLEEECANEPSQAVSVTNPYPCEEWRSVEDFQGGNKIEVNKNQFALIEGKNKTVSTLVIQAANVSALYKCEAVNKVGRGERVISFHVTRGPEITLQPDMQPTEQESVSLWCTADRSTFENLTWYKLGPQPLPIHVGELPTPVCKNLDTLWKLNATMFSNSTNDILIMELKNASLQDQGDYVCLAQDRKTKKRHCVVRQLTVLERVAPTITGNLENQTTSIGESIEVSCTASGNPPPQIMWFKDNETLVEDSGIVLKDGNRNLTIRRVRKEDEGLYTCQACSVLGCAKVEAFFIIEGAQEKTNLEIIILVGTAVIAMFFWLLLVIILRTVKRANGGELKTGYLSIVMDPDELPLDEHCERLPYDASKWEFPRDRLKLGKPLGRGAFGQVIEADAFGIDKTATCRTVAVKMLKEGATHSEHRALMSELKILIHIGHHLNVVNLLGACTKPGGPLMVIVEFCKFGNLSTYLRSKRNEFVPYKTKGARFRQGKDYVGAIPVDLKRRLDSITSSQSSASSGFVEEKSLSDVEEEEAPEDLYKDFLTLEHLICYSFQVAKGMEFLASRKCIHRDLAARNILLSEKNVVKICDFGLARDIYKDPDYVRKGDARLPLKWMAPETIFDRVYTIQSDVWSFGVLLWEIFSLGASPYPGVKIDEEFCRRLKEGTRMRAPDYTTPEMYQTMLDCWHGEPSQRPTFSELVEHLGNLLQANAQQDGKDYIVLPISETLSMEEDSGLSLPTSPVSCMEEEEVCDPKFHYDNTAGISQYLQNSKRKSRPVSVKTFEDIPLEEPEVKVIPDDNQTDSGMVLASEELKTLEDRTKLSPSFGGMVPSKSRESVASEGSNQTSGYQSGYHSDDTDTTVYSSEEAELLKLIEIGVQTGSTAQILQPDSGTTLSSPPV
compound,measurement,setting,value
"Cc1ccc2oc(SCC(=O)Nc3ccc(C(=O)Nc4cccc(Cl)c4)cc3)nc2c1 [Compound 12l, N-(3-Chlorophenyl)-4–(2-((5-methylbenzo[d]oxazol-2-yl)thio)acetamido)benzamide]",IC50,"[1]; MCF7, 24 h, MTT, 24 h treatment, mean of three experiments, read-out: In vitro IC50 MCF-7",15.2 ± 1.1 µM
same,IC50,"[1]; MCF7, supplement raw data, dose-response curve fit, read-out: LogIC50 best-fit value, MCF-7 (converted)",15.2 µM
same,IC50,[2]; ELISA kit,0.0974 µM
same,"HillSlope best-fit value, VEGFR-2","[2]; supplement raw data, curve fit",-0.4614
same,"LogIC50 best-fit value, VEGFR-2","[2]; supplement raw data, curve fit",1.988 Log (nM)
same,Early apoptotic phase,"[3]; HepG2, 10.50 µM, 24 h",32.45%
same,Late apoptotic phase,"[3]; HepG2, 10.50 µM, 24 h",2.86%
same,Apoptosis Early (Right Bottom),[3]; [4],32.45 ± 3.13
same,Apoptosis Late (Right Top),[3]; [4],2.86 ± 0.21
same,Necrosis (Left Top),[3]; [4],0.14 ± 0.06
same,Viable (Left Bottom),"[3]; HepG2, 24 h, mean ± SEM of two experiments, in %",64.55 ± 3.43
